Test system: cardiomyocytes derived from double knock-in human iPS cell lines (EmGFP at TNNI1, mCherry at TNNI3)
Experiment: TNNI3-mCherry reporter expression by anti-mCherry immunostaining and high contents screening (Experimental Example 1)
Assay type: cell-based
Conditions: 1 μM test compound added on 3rd and 6th culture days, measured on 8th culture day; Alexa 647 (anti-mCherry); average of n=3; control well (no addition) 797
Experimental: (§1) For detection of cardiomyocyte maturation, double knock-in human iPS cell lines, in which reporter protein sequences, EmGFP (Sequence Number 1) and mCherry (Sequence Number 2) were inserted into gene loci for TNNI1 and TNNI3, respectively, were prepared (the human iPS cells were prepared from episomal vector (loaded gene; OCT3/4, KLF4, SOX2, L-MYC, LIN28, mouse p53DD) using PBMC (LP_167, Sample ID:20130318) purchased from CTL (reference literature; Okita K, et al. Stem Cells. 2012 Nov. 29. doi: 10.1002/stem.1293)).
(§2) The maintenance culture of the above-mentioned reporter iPS cell lines was carried out by a conventional method (Okita K, et al. Stem Cells. 2012 Nov. 29. doi: 10.1002/stem.1293).
For differentiation induction into cardiomyocytes, the reporter iPS cell lines were treated with 0.5×TrypLE select (Life Technologies, diluted in ½ with 0.5 mM EDTA/PBS) for 4 to 5 minutes, and the cells were exfoliated using a cell scraper (IWAKI), and then dissociated into the single cell by pipetting. The medium was removed by centrifugation (1,000 rpm, 5 min), and the obtained cells were seeded on a bioreactor (ABLE) by 1×10^7 cells per 30 mL of the bioreactor, and then cultured in a medium prepared by adding 1% L-glutamine, transferrin 150 μg/mL, ascorbic acid 50 μg/mL (Sigma), monothioglycerol 4×10^−4 M, 10 μM Rock inhibitor (Y-27632), 2 ng/mL BMP4 (R&D) and 0.5% Matrigel (Growth Factor Reduced) to a medium after removal of solution C from StemFit AK02 (AJINOMOTO AK02, 400 mL of solution A and 100 mL of B solution, total 500 mL), at 37° C., under 5% oxygen condition (55 rpm, stirred suspension culture method) to form embryoid bodies (0 day).
Next day (1st day), 9 μL (final concentration 3 ng/mL) of […], 15 μL (final concentration 5 ng/mL) of 10 μg/mL bFGF and […] (final concentration 10 ng/mL) of 10 μg/mL BMP4 were added to the bioreactor, and the cells were cultured at 37° C. for additional 2 days, under 5% oxygen condition.
Then (3rd day), the obtained embryoid bodies were collected in a 50 mL centrifuge tube, and then subjected to centrifugation (200 g, 1 min). The medium was removed, and the embryoid bodies were cultured in a medium prepared by adding 1% L-glutamine, transferrin 150 μg/mL, ascorbic acid 50 μg/mL (Sigma), monothioglycerol 4×10^−4 M, 10 ng/mL VEGF, 1 μM IWP-3, 0.6 μM dorsomorphin and 5.4 μM SB431542 to a medium after removal of solution C from StemFit AK02 (AJINOMOTO AK02, 400 mL of solution A and 100 mL of B solution, total 500 mL), at 37° C. for 3 days, under 5% oxygen condition (55 rpm, stirred suspension culture method).
Then (6th day), the bioreactor was left to stand to precipitate the embryoid bodies, and 80 to 90% of the medium was removed. A medium prepared by adding 1% L-glutamine, transferrin 150 μg/mL, ascorbic acid 50 μg/mL (Sigma), monothioglycerol 4×10^−4 M and 5 ng/mL VEGF to a medium after removal of solution C from StemFit AK02 (AJINOMOTO AK02, 400 mL of solution A and 100 mL of B solution, total 500 mL) was added to the bioreactor so that the total volume became 30 mL, and the embryoid bodies were cultured for 8 days, at 37° C., under 5% oxygen condition (55 rpm, stirred suspension culture method). During the culture, the medium was replaced with a medium under the same conditions every 2 to 3 days.
14th Day after the start of the differentiation induction, the embryoid bodies were treated with 2 mg/mL collagenase type I (Sigma) for 2 hr, and then with 0.25% trypsin/EDTA (Invitrogen) for 10 min. 50% FBS/IMDM (Thermo Fisher Science) was added thereto, and the embryoid bodies were dissociated into the single cell by pipetting, and then subjected to centrifugation (1,000 rpm, 5 minutes). […]

In order of falling “average fluorescent intensity (at 1 μM)” value:
1. COc1ccc(C[C@H](NC(=O)[C@H](C)NC(=O)CN2CCOCC2)C(=O)N[C@@H](Cc2ccccc2)C(=O)[C@]2(C)CO2)cc1 [Example No. 5, 4,5-anhydro-1,2-dideoxy-4-methyl-2-((N-(morpholin-4-ylacetyl)-L-alanyl-O-methyl-L-tyrosyl)amino)-1-phenyl-L-threo-pent-3-ulose]  1791
2. CC[C@]1(O)C[C@H]2CN(CCc3c([nH]c4ccccc34)[C@@](C(=O)OC)(c3cc4c(cc3OC)N(C=O)[C@H]3[C@@](O)(C(=O)OC)[C@H](OC(C)=O)[C@]5(CC)C=CCN6CC[C@]43[C@@H]65)C2)C1 [Example No. 3, (2′beta)-22-oxovincaleukoblastine]  1710
3. COc1ccc(/C=C\c2cc(OC)c(OC)c(OC)c2)cc1O [Example No. 1, 2-methoxy-5-((Z)-2-(3,4,5-trimethoxyphenyl)vinyl)phenol]  1381
4. CCn1nnc2cc(COC(=O)Nc3sc(-c4ccc(C)cc4OC)nc3C)ccc21 [Example No. 2, (1-ethyl-1H-benzotriazol-5-yl)methyl (2-(2-methoxy-4-methylphenyl)-4-methyl-1,3-thiazol-5-yl)carbamate]  1331
5. COc1cccc(-c2cc3ccc(N(C)C)cc3c(N)n2)c1 [Example No. 6, 3-(3-methoxyphenyl)-N7,N7-dimethylisoquinoline-1,7-diamine]  1305
6. COC(=O)c1c(C)[nH]c(C)c1C(=O)c1ccccc1Cc1ccccc1 [Example No. 7, methyl 4-(2-benzylbenzoyl)-2,5-dimethyl-1H-pyrrole-3-carboxylate]  1294
7. Nc1ccc(-c2nc3cc(-c4nc5cc(N)ccc5[nH]4)ccc3[nH]2)cc1 [Example No. 8, 2′-(4-aminophenyl)-1H,1′H-2,5′-bibenzimidazol-5-amine]  1150
8. Clc1ccc(CCc2nc3cc(-c4ccco4)cnc3[nH]2)cc1 [Example No. 4, 2-(2-(4-chlorophenyl)ethyl)-6-(2-furyl)-3H-imidazo[4,5-b]pyridine]  1125

Test system: embryoid bodies/cardiomyocytes derived from double knock-in human iPS cell lines (EmGFP at TNNI1, mCherry at TNNI3)
Experiment: mCherry expression in TNNI1+ cells by flow cytometry (Experimental Example 2)
Assay type: cell-based
Conditions: 40 nM, 10th to 16th day of differentiation, controls 7.4 (no addition), 10.2 (0.1% DMSO)
Experimental: as §1, §2
For differentiation induction into cardiomyocytes, the reporter iPS cell lines were treated with 0.5×TrypLE select (Life Technologies, diluted in ½ with 0.5 mM EDTA/PBS) for 4 to 5 minutes, and the cells were exfoliated using a cell scraper (IWAKI), and then dissociated into the single cell by pipetting. […]

`CCn1nnc2cc(COC(=O)Nc3sc(-c4ccc(C)cc4OC)nc3C)ccc21` [Example No. 2, (1-ethyl-1H-benzotriazol-5-yl)methyl (2-(2-methoxy-4-methylphenyl)-4-methyl-1,3-thiazol-5-yl)carbamate] was tested, and the “mCherry+ (%)” value was 36.1%.
